Literature values in patent US20160045407A1, “DENTRIFICE WITH INCREMENTAL CHEMISTRIES” (The Procter & Gamble Company, priority 2014, published 2016).

Conditions: concentration level where the cooling effect can be clearly recognized
In the case of `CC(C)[C@@H]1CC[C@@H](C)C[C@H]1O` [L-menthol], the cooling threshold is listed as “about 800 ppb”. In the case of `CC(C)[C@@H]1CC[C@@H](C)C[C@@H]1O` [1-neomenthol], the cooling threshold is listed as “about 3,000 ppb”. In the case of `CC(C)[C@@H]1CC[C@@H](C)C[C@@H]1O` [d-neomenthol], the cooling threshold is listed as “about 25,000 ppb”.
